Series [1] in a line: Pharmacokinetic profile of cannabinoid sulfate esters compared to CBD. As to conditions: for Cmax / Tmax / half-life: plasma.
Description: The PK profile of certain exemplary cannabinoid sulfate esters, including the half-life (T1/2), maximum plasma concentration (Cmax), and time to reach Cmax (Tmax), is shown compared to CBD in the table below.
In another series the test system is intraocular pressure. As to conditions: normotensive rabbit; cited from earlier work.
For series [2] the following is noted: pH 7.4; cited from earlier work.

Each structure is given as a SMILES string. Structures can show the parent of a compound that is named as a salt.

Regarding `C=C(C)[C@@H]1CCC(C)=C[C@H]1c1c(O)cc(CCCCC)cc1OS(=O)(=O)O` [CBD sulfate morpholinium salt, morpholin-4-ium (1′R,2′R)-6-hydroxy-5′-methyl-4-pentyl-2′-(prop-1-en-2-yl)-1′,2′,3′,4′-tetrahydro-[1,1′-biphenyl]-2-yl sulfate], in series [1], the Cmax was 10 ng/mL, the Tmax was determined as 1 h and the half-life is 32.7 h.

On to `C=C(C)[C@@H]1CCC(C)=C[C@H]1c1c(O)cc(CCCCC)cc1OS(=O)(=O)O` [CBD sulfate piperazinium salt, piperazin-1-ium (1′R,2′R)-6-hydroxy-5′-methyl-4-pentyl-2′-(prop-1-en-2-yl)-1′,2′,3′,4′-tetrahydro-[1,1′-biphenyl]-2-yl sulfate], for which, in series [1] (half-life), the T1/2 is recorded as 3.0 h. Moreover, in series [1], the Tmax came to 1 h. Further, in series [1] (Cmax, maximum plasma concentration), the Cmax is 19 ng/mL.

As for `C=C(C)[C@@H]1CCC(C)=C[C@H]1c1c(O)cc(CCCCC)cc1OS(=O)(=O)[O-].[Na+]` [CBD sulfate sodium salt, sodium (1′R,2′R)-6-hydroxy-5′-methyl-4 pentyl-2′-(prop-1-en-2-yl)-1′,2′,3′,4′-tetrahydro-[1,1′-biphenyl]-2-yl sulfate], in series [1], the Cmax was found to be 12 ng/mL, the Tmax was 1 h and the half-life was 2.9 h.

As to `C=C(C)[C@@H]1CCC(C)=C[C@H]1c1c(O)cc(CCCCC)cc1O` [CBD, cannabidiol, reference compound], in series [1], the highest level (Cmax) was 4.8 ng/mL, the Tmax was 0.5 h and the half-life is 3.9 h.

Consider `CCCCC/C=C\C/C=C\C/C=C\C/C=C\CCCC(=O)NCCOP(=O)(O)O` [phosphate ester pro-drug of anandamide], for which the intraocular pressure result with intraocular pressure is “reduced the intraocular pressure”. In addition, the “increase of aqueous solubility over the parent endocannabinoid” value in series [2] is > 16 500 fold.

Source of the values: patent US12655094B2, “Cannabinoid sulfate esters, their salts and uses thereof” (LONDON PHARMACEUTICALS AND RESEARCH CORPORATION, priority 2020, dated 2026).
